According to PubChem BioAssay AID1845205 (Molecular Pharmacology Branch, DTP, NCI, 2023):

System: MPNST multicellular tumor spheroids, viability % test/control
Test: Anticancer human tumor MPNST cell line growth inhibition;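 also: spheroids exposed to agents for seven days after three days of growth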;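 as to viability, T/C: luminescence signal used as surrogate for viable cell amount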
Conditions: for viability, T/C: stronger effect = lower value
Text: Multicellular complex tumor spheroid response to DNA repair inhibitors in combination with DNA-damaging drugs
This study explores the anticancer activities of DNA-damaging drugs and inhibitors of DNA damage repair, both as single agents and in combinations. Complex tumor spheroids comprised of malignant cells, endothelial cells and mesenchymal stem cells served as an in vitro model for human solid tumors. This model system incorporates physiologically relevant features and patient-derived or established malignant cell lines with clinically relevant genetic alterations from many tumor types. Twenty-six patient-derived or established malignant cell lines were evaluated representing sarcoma, melanoma, small cell lung cancer (SCLC), non-small cell lung cancer (NSCLC), as well as bladder, ovarian and pancreatic cancers. The concentration ranges selected for each drug and investigational agent were based upon clinically achievable concentrations if the clinical Cmax of the agent was known.
Compounds. The drugs and compounds olaparib (NSC753686), talazoparib (NSC767125), berzosertib (NSC777718), elimusertib (NSC800525), nedisertib (NSC802822), VX-984 (NSC792969), AZD-1390 (NSC803789), temozolomide (NSC362856), topotecan (NSC609699), trabectedin (NSC813783), staurosporine (NSC755774), and gemcitabine (NSC613327) were obtained from the National Cancer Institute (NCI) Developmental Therapeutics Program Chemical Repository. The FDA-approved anticancer drug set is available from the Developmental Therapeutics Program at https://dtp.cancer.gov/organization/dscb/obtaining/available_plates.htm. […] The stock solutions were prepared in dimethyl sulfoxide (DMSO, Sigma-Aldrich, St. Louis, MO, cat. D2650) at 400-fold the tested concentration and stored at -70 degrees C. Prior to their use, the stock solutions were diluted in fresh medium and the final DMSO concentration in the assay was 0.25% (v/v). All drugs and investigational agents were tested over a range starting from a high concentration at or near the clinical Cmax and decreasing in half-log increments. If the clinical Cmax for an agent had not been determined, the highest concentration tested was 10 microM.
Cell Lines. The patient-derived cancer cell (PDC) lines: 156681-154-R-J1-PDC, 283228-195-R-J1-PDC, 287954-098-R-J1-PDC, 292921-168-R-J2-PDC, 349418-098-R-PDC, 425362-245-T-J1-PDC, 556581-035-R-J1-PDC, and BL0293-F563-PDC were received from the NCI Patient-Derived Models Repository (PDMR, https://pdmr.cancer.gov). The established cell lines HS-SY-2 (RRID:CVCL_8719), MPNST, and SYO-1 (RRID:CVCL_7146) were obtained from the Sloan Kettering Institute. The alveolar soft parts sarcoma cell line ASPS-1 (RRID:CVCL_S738) was established at the NCI and grown from internal seed stocks. The following established cell lines were purchased from the American Type Culture Collection (ATCC, Manassas, VA): G-401 (ATCC, cat. CRL-1441, RRID:CVCL_0270), SW982 (ATCC, cat. HTB-93, RRID:CVCL_1734), VA-ES-BJ (ATCC, cat. CRL-2138, RRID:CVCL_1785), NCI-H719 (ATCC, cat. CRL-5837, RRID:CVCL_1582), NCI-H196 (ATCC, cat. CRL-5823, RRID:CVCL_1509), NCI-H841 (ATCC, cat. CRL-5845, RRID:CVCL_1595), NCI-H1618 (ATCC, cat. CRL-5879, RRID:CVCL_1480), NCI-H1876 (ATCC, cat. CRL-5902, RRID:CVCL_1503), DMS 114 (ATCC, cat. CRL-2066; RRID:CVCL_1174), NCI-H211 (ATCC, cat. CRL-5824; RRID:CVCL_1529), and SW 1271 (ATCC, cat. CRL-2177, RRID:CVCL_1716). The small cell lung cancer cell line COR-L88 was purchased from Sigma-Aldrich (cat. 92031917-1VL, RRID:CVCL_1141). The non-small cell lung cancer cell lines NCI-H226 (RRID:CVCL_1544) and NCI-H322M (RRID:CVCL_1557) were established at the NCI and grown from internal seed stocks. Pooled donor human umbilical vein endothelial cells (HUVEC, Lonza, cat. CC-2519) and human mesenchymal stem cells (hMSC, Lonza, cat. PT-2501) were purchased from Lonza (Walkersville, MD).
Cell Culture. All cells were maintained in an incubator at 37 degrees C and 5% CO2 with 95% humidity. […]

CC[C@@]1(O)C(=O)OCc2c1cc1n(c2=O)Cc2cc3c(CN(C)C)c(O)ccc3nc2-1
viability, T/C (compound 0.03 µM): 53% [middle of 10 runs]
viability, T/C (compound 0.3 µM): 41.1% [middle of 10 runs]
IC50 (compound alone, run of 12/16/2019): 28.5 nM [middle of 5 runs]

CC(C)n1c(=O)n(C)c2cnc3cc(F)c(-c4ccc(OCCCN5CCCCC5)nc4)cc3c21 + CC[C@@]1(O)C(=O)OCc2c1cc1n(c2=O)Cc2cc3c(CN(C)C)c(O)ccc3nc2-1
IC50 (curve of first compound, second compound 0.003 µM): 6260 nM
IC50 (curve of first compound, second compound 0.00949 µM): < 31.6 nM
IC50 (curve of first compound, second compound 0.03 µM): < 31.6 nM
IC50 (curve of first compound, second compound 0.0949 µM): < 31.6 nM
IC50 (curve of first compound, second compound 0.3 µM): < 31.6 nM
viability, T/C (second compound 0.003 µM, first compound 0.0316 µM): 65.9%
viability, T/C (second compound 0.003 µM, first compound 0.1 µM): 52%
viability, T/C (second compound 0.003 µM, first compound 0.316 µM): 79.9%
viability, T/C (second compound 0.003 µM, first compound 1 µM): 97.3%
viability, T/C (second compound 0.003 µM, first compound 3.16 µM): 59.6%
viability, T/C (second compound 0.003 µM, first compound 10 µM): 38.8%
viability, T/C (second compound 0.00949 µM, first compound 0.0316 µM): 46.8%
viability, T/C (second compound 0.00949 µM, first compound 0.1 µM): 41.3%
viability, T/C (second compound 0.00949 µM, first compound 0.316 µM): 50.5%
viability, T/C (second compound 0.00949 µM, first compound 1 µM): 41.3%
viability, T/C (second compound 0.00949 µM, first compound 3.16 µM): 50.3%
viability, T/C (second compound 0.00949 µM, first compound 10 µM): 34.6%
viability, T/C (second compound 0.03 µM, first compound 0.0316 µM): 35.4%
viability, T/C (second compound 0.03 µM, first compound 0.1 µM): 33.4%
viability, T/C (second compound 0.03 µM, first compound 0.316 µM): 38.9%
viability, T/C (second compound 0.03 µM, first compound 1 µM): 44.5%
viability, T/C (second compound 0.03 µM, first compound 3.16 µM): 44.1%
viability, T/C (second compound 0.03 µM, first compound 10 µM): 31.8%
viability, T/C (second compound 0.0949 µM, first compound 0.0316 µM): 34.6%
viability, T/C (second compound 0.0949 µM, first compound 0.1 µM): 35.2%
viability, T/C (second compound 0.0949 µM, first compound 0.316 µM): 35.5%
viability, T/C (second compound 0.0949 µM, first compound 1 µM): 39.8%
viability, T/C (second compound 0.0949 µM, first compound 3.16 µM): 37.8%
viability, T/C (second compound 0.0949 µM, first compound 10 µM): 32.6%
viability, T/C (second compound 0.3 µM, first compound 0.0316 µM): 30.2%
viability, T/C (second compound 0.3 µM, first compound 0.1 µM): 29%
viability, T/C (second compound 0.3 µM, first compound 0.316 µM): 31.4%
viability, T/C (second compound 0.3 µM, first compound 1 µM): 34.9%
viability, T/C (second compound 0.3 µM, first compound 3.16 µM): 36.5%
viability, T/C (second compound 0.3 µM, first compound 10 µM): 29.1%

CC1COCCN1c1cc(-c2ccnn2C)c2ccnc(-c3ccn[nH]3)c2n1 (stereo not drawn) + Cn1nnc2c(C(N)=O)ncn2c1=O
IC50 (curve of first compound, second compound 1 µM): 198 nM
IC50 (curve of first compound, second compound 3.16 µM): 238 nM
IC50 (curve of first compound, second compound 10 µM): 142 nM
IC50 (curve of first compound, second compound 31.6 µM): 386 nM
IC50 (curve of first compound, second compound 100 µM): 182 nM
viability, T/C (second compound 1 µM, first compound 0.0316 µM): 62%
viability, T/C (second compound 1 µM, first compound 0.1 µM): 55.8%
viability, T/C (second compound 1 µM, first compound 0.316 µM): 45.8%
viability, T/C (second compound 1 µM, first compound 1 µM): 39.7%
viability, T/C (second compound 1 µM, first compound 3.16 µM): 34.1%
viability, T/C (second compound 1 µM, first compound 10 µM): 35.3%
viability, T/C (second compound 3.16 µM, first compound 0.0316 µM): 62.2%
viability, T/C (second compound 3.16 µM, first compound 0.1 µM): 56.2%
viability, T/C (second compound 3.16 µM, first compound 0.316 µM): 47.9%
viability, T/C (second compound 3.16 µM, first compound 1 µM): 39.5%
viability, T/C (second compound 3.16 µM, first compound 3.16 µM): 31%
viability, T/C (second compound 3.16 µM, first compound 10 µM): 31.9%
viability, T/C (second compound 10 µM, first compound 0.0316 µM): 64.2%
viability, T/C (second compound 10 µM, first compound 0.1 µM): 52.2%
viability, T/C (second compound 10 µM, first compound 0.316 µM): 45.2%
viability, T/C (second compound 10 µM, first compound 1 µM): 38.2%
viability, T/C (second compound 10 µM, first compound 3.16 µM): 35.9%
viability, T/C (second compound 10 µM, first compound 10 µM): 34.4%
viability, T/C (second compound 31.6 µM, first compound 0.0316 µM): 61.8%
viability, T/C (second compound 31.6 µM, first compound 0.1 µM): 57.1%
viability, T/C (second compound 31.6 µM, first compound 0.316 µM): 52.5%
viability, T/C (second compound 31.6 µM, first compound 1 µM): 41.2%
viability, T/C (second compound 31.6 µM, first compound 3.16 µM): 32.2%
viability, T/C (second compound 31.6 µM, first compound 10 µM): 31.5%
viability, T/C (second compound 100 µM, first compound 0.0316 µM): 63.6%
viability, T/C (second compound 100 µM, first compound 0.1 µM): 54.4%
viability, T/C (second compound 100 µM, first compound 0.316 µM): 46.1%
viability, T/C (second compound 100 µM, first compound 1 µM): 37.1%
viability, T/C (second compound 100 µM, first compound 3.16 µM): 30.2%
viability, T/C (second compound 100 µM, first compound 10 µM): 31.8%
